Tested on: SEM cells
Assay: cell viability relative to DMSO control; higher = less cytotoxic
Conditions: 48 h
How it was run: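 Library compounds in DMSO were pin-dosed in an 11-point threefold series (47 μM to 0.79 nM) onto leukemia cells in 1536-well plates (5 μl). Plates held 500 cells/well of NOMO1 or SEM or 1000 cells/well of P12-Ichikawa, each adapted for at least four passages in each medium. Luminescence was read with CellTiter-Glo One after 48 h at 37°C. Viability means the per-plate percentage relative to DMSO wells, using cell-free wells as background.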

[1] = HPLM + 10% dialyzed FBS, 0.000781 µM
[2] = HPLM + 10% dialyzed FBS, 0.00234 µM
[3] = HPLM + 10% dialyzed FBS, 0.00702 µM
[4] = HPLM + 10% dialyzed FBS, 0.0211 µM
[5] = HPLM + 10% dialyzed FBS, 0.0632 µM
[6] = HPLM + 10% dialyzed FBS, 0.19 µM
[7] = HPLM + 10% dialyzed FBS, 0.569 µM
[8] = HPLM + 10% dialyzed FBS, 1.71 µM
[9] = HPLM + 10% dialyzed FBS, 5.12 µM
[10] = HPLM + 10% dialyzed FBS, 15.4 µM
[11] = HPLM + 10% dialyzed FBS, 46.1 µM
[12] = RPMI 5 mM glucose + 10% FBS, 0.000781 µM
[13] = RPMI 5 mM glucose + 10% FBS, 0.00234 µM
[14] = RPMI 5 mM glucose + 10% FBS, 0.00702 µM
[15] = RPMI 5 mM glucose + 10% FBS, 0.0211 µM
[16] = RPMI 5 mM glucose + 10% FBS, 0.0632 µM
[17] = RPMI 5 mM glucose + 10% FBS, 0.19 µM
[18] = RPMI 5 mM glucose + 10% FBS, 0.569 µM
[19] = RPMI 5 mM glucose + 10% FBS, 1.71 µM
[20] = RPMI 5 mM glucose + 10% FBS, 5.12 µM
[21] = RPMI 5 mM glucose + 10% FBS, 15.4 µM
[22] = RPMI 5 mM glucose + 10% FBS, 46.1 µM
[23] = RPMI 5 mM glucose + 10% dialyzed FBS, 0.000781 µM
[24] = RPMI 5 mM glucose + 10% dialyzed FBS, 0.00234 µM
[25] = RPMI 5 mM glucose + 10% dialyzed FBS, 0.00702 µM
[26] = RPMI 5 mM glucose + 10% dialyzed FBS, 0.0211 µM
[27] = RPMI 5 mM glucose + 10% dialyzed FBS, 0.0632 µM
[28] = RPMI 5 mM glucose + 10% dialyzed FBS, 0.19 µM
[29] = RPMI 5 mM glucose + 10% dialyzed FBS, 0.569 µM
[30] = RPMI 5 mM glucose + 10% dialyzed FBS, 1.71 µM
[31] = RPMI 5 mM glucose + 10% dialyzed FBS, 5.12 µM
[32] = RPMI 5 mM glucose + 10% dialyzed FBS, 15.4 µM
[33] = RPMI 5 mM glucose + 10% dialyzed FBS, 46.1 µM

Compound | cell viability [1] [%] | cell viability [2] [%] | cell viability [3] [%] | cell viability [4] [%] | cell viability [5] [%] | cell viability [6] [%] | cell viability [7] [%] | cell viability [8] [%] | cell viability [9] [%] | cell viability [10] [%] | cell viability [11] [%] | cell viability [12] [%] | cell viability [13] [%] | cell viability [14] [%] | cell viability [15] [%] | cell viability [16] [%] | cell viability [17] [%] | cell viability [18] [%] | cell viability [19] [%] | cell viability [20] [%] | cell viability [21] [%] | cell viability [22] [%] | cell viability [23] [%] | cell viability [24] [%] | cell viability [25] [%] | cell viability [26] [%] | cell viability [27] [%] | cell viability [28] [%] | cell viability [29] [%] | cell viability [30] [%] | cell viability [31] [%] | cell viability [32] [%] | cell viability [33] [%]
CC(C)OC(=O)[C@H](C)N[P@](=O)(OC[C@H]1O[C@@H](N2\C=C/C(=O)NC2=O)[C@](C)(F)[C@@H]1O)OC3=CC=CC=C3 | 105 | 111 | 122 | 120 | 99.4 | 131 | 106 | 98.4 | 57.7 | 17.6 | 18.5 | 125 | 120 | 130 | 122 | 121 | 125 | 125 | 120 | 88.1 | 14.3 | 9.48 | 101 | 109 | 106 | 120 | 111 | 115 | 107 | 105 | 86.8 | 17.3 | 9.7
Cc1ccccc1C(=O)Nc1ccc(C(=O)N2CCCC(O)c3cc(Cl)ccc32)c(C)c1 (stereo not drawn) | 109 | 97.2 | 97.9 | 112 | 113 | 117 | 131 | 42.2 | 108 | 127 | 121 | 122 | 109 | 123 | 136 | 141 | 127 | 137 | 32.9 | 140 | 151 | 146 | 103 | 116 | 112 | 140 | 132 | 136 | 149 | 56.3 | 146 | 140 | 133
O=C(O)c1cc(/N=N/c2ccc([S+](=O)([O-])Nc3ccccn3)cc2)ccc1O | 84.9 | 108 | 95.3 | 76.3 | 101 | 103 | 122 | 106 | 110 | 90.8 | 98.2 | 98.8 | 101 | 108 | 71.9 | 103 | 114 | 112 | 97.2 | 89.3 | 116 | 75.1 | 91.7 | 102 | 96.2 | 76.8 | 117 | 91.5 | 97.5 | 106 | 95.5 | 89.4 | 82.1
C[C@@H](CN1CC(=O)NC(=O)C1)N1CC(=O)NC(=O)C1 | 86.3 | 103 | 102 | 96.6 | 70.9 | 32.1 | 17.2 | 12.8 | 10.5 | 5.86 | 4.47 | 93.6 | 99.3 | 98.2 | 67.1 | 72.1 | 17.1 | 9.93 | 8.96 | 7.24 | 4.49 | 3.85 | 75 | 101 | 92.6 | 82.5 | 61.1 | 18.6 | 8.07 | 8.83 | 7.97 | 4.17 | 3.08
CCCCCCCCCCCCCC(=O)N[C@H](CO)[C@H](O)c1ccc([N+](=O)[O-])cc1 | 97.4 | 81.4 | 89.5 | 95.4 | 98.9 | 65.1 | 79.7 | 39.8 | 13.8 | 3.54 | 2.38 | 99.6 | 76.1 | 89.1 | 103 | 95.5 | 55.4 | 66.5 | 25.1 | 9.49 | 3.9 | 2.41 | 87.3 | 81.9 | 85.2 | 94.3 | 93.1 | 55.2 | 83 | 36 | 8.3 | 4.49 | 2.85
CCCCCNC(=O)N1CCC(CN(Cc2ccc(Cl)cc2)Cc2ccc([N+](=O)[O-])s2)C1 (stereo not drawn) | – | – | – | – | – | – | – | – | – | – | – | 113 | 118 | 129 | 116 | 134 | 120 | 122 | 126 | 121 | 79.5 | 56.1 | 113 | 134 | 108 | 107 | 114 | 128 | 121 | 127 | 132 | 102 | 48.2
COc1ccc2c(c1)[C@]13CCCCC1C(C2)N(C)CC3 (stereo partly drawn) | 102 | 116 | 113 | 106 | 116 | 112 | 103 | 100 | 128 | 111 | 129 | 106 | 105 | 115 | 115 | 111 | 126 | 110 | 113 | 126 | 126 | 123 | 101 | 103 | 106 | 114 | 108 | 114 | 118 | 109 | 117 | 108 | 114
CCCCN(CCCC)CC(O)c1cc(Cl)cc2c1-c1ccc(Cl)cc1/C2=C/c1ccc(Cl)cc1 (stereo not drawn) | 93.1 | 95.5 | 93.1 | 108 | 99 | 107 | 111 | 105 | 109 | 104 | 106 | 80.9 | 95.7 | 85.6 | 95.7 | 95.1 | 98.4 | 94.6 | 89.9 | 98.6 | 91.2 | 78.9 | 88.9 | 94.4 | 89.3 | 89.6 | 78.9 | 94.4 | 94.5 | 97.7 | 101 | 80.5 | 91.3
